Test results as given in paper PMC8434109, “Synthesis and Biological Activity of a Cytostatic Inhibitor of MLLr Leukemia Targeting the DOT1L Protein” (Molecules, 2021).

What was measured:
MOLM-13 cells (MLL-AF9) = test: Cell proliferation, trypan blue counting; assay type: cell-based; conditions: Homo sapiens, 360 h; MOLM-13 (AF9), 15-day treatment; read-out: EC50 of the proliferation inhibition
[1] = test system: HOXA9 and MEIS1 expression in MV4-11, MOLM13 and KOPN8 cells; test: Quantitative real-time PCR of MLL target genes; assay type: cell-based, human; conditions: 0.1, 0.32, 1 and 3.2 µM; 6 days MV4-11 and MOLM13, 10 days KOPN8
Procedure: We then investigated the impact of the inhibition of H3K79me2 in MLLr cells on the expression of the pro-leukemic genes, HOXA9 and MEIS1. These are MLL target genes and have been characterized for being activated by the aberrant H3K79 methylation by DOT1L recruited at these genes by the MLL-fusion proteins and inhibited by DOTL1 inhibitors. […] The difference in kinetics is related to the doubling time of the cells (Table 1), indeed, we measured that the doubling time of MV4-11 is 12 h while the doubling time for MOLM-13 is 22 h.
The non-adherent cell lines MV4-11, MOLM-13, and KOPN8 exponentially growing cells were plated in 12-well plates (1 plate for each experiment) at a rate of 500,000 cells per well at a final volume of 2 mL. The cells were incubated in the presence of increasing inhibitor concentrations (0.1, 0.32, 1, 3.2, 10 µM). […]
Total RNA was isolated from the cell pellet of at least 1 × 10^6 cells using the RNAeasy mini kit (Cat No.: 74106, Qiagen) according to the manufacturer’s instructions. […] Complementary DNA (cDNA) was diluted at 1:10 and used as a template in quantitative real-time PCR (RT-qPCR) using the SYBR Green Master Kit (ref. 047516001, Roche, Boulogne-Billancourt, France) and LightCycler®480 (Roche, Boulogne-Billancourt, France) System according to the manufacturer’s instructions. […]

EC50 (MOLM-13 cells (MLL-AF9)): 120 ± 10 nM
SMILES: CC(C)[C@H](CCCNC(=O)Nc1ccc(C(C)(C)C)cc1)N[C@H]1C[C@@H](n2cnc3c(N)ncnc32)[C@H](O)[C@@H]1O [Dia2, 1-((S)-4-(((1S,2R,3S,4R)-4-(6-amino-9H-purin-9-yl)-2,3-dihydroxycyclopentyl)amino)-5-methylhexyl)-3-(4-(tert-butyl)phenyl)urea]
MEIS1 and HOXA9 expression [1]: decrease in a dose-dependent manner
